Laboratory results published in patent US20100261719A1, “CHEMICAL COMPOUNDS” (priority 2007, published 2010).

Each compound was assayed against Escherichia coli DNA gyrase A/B tetramer (Escherichia coli, UniProt P0AES4+P0AES6) (assay: DNA gyrase supercoiling activity fluorescence polarisation assay). Details: not given.
Type: biochemical
Method: In a black, 384-well polystyrene assay plate, 30 microliters/well of 5 nM Escherichia coli DNA gyrase A/B tetramer and 130 micrograms/ml of topologically relaxed plasmid containing the triplex-forming sequence […] in an assay buffer consisting of 35 mM Tris-HCl (pH 7.5), 24 mM KCl, 4 mM MgCl2, 2 mM dithiothreitol, 1.8 mM spermidine, 5% (v/v) glycerol, 200 nM bovine serum albumin, 0.8% dimethylsulfoxide, and 0.3 mM ATP may be incubated at ambient temperature for (typically 30 minutes) in the absence or presence of 5-10 different concentrations of test compound. The supercoiling reactions may be quenched by the addition of 10 microliters/well of 40 nM oligodeoxynucleotide probe in 3× triplex-forming buffer consisting of 150 mM NaCl, and 150 mM sodium acetate at pH 3.5. The oligodeoxynucleotide probe may be 5′-BODIPY-FL-labeled TTCTTCTTC. After 60 minutes, the fluorescence anisotropy of the BODIPY-FL may be measured in a Tecan Ultra plate reader, using 485 nm excitation and 535 nm emission filters equipped with polarizers. The IC50 may be determined by nonliner regression using two control reactions. The first contains no test compound but 0.8% DMSO (100% activity) while the second control reaction contains 5 uM Ciprofloxacin and 0.8% DMSO (0% activity).
When tested in an in-vitro assay based on the DNA gyrase supercoiling activity fluorescence polarisation assay described above, the E. coli DNA gyrase supercoiling IC50 assay inhibitory activity of the following Examples was measured at the indicated IC50.

Escherichia coli DNA gyrase A/B tetramer, sequence (P0AES4 whole entry, one chain of several): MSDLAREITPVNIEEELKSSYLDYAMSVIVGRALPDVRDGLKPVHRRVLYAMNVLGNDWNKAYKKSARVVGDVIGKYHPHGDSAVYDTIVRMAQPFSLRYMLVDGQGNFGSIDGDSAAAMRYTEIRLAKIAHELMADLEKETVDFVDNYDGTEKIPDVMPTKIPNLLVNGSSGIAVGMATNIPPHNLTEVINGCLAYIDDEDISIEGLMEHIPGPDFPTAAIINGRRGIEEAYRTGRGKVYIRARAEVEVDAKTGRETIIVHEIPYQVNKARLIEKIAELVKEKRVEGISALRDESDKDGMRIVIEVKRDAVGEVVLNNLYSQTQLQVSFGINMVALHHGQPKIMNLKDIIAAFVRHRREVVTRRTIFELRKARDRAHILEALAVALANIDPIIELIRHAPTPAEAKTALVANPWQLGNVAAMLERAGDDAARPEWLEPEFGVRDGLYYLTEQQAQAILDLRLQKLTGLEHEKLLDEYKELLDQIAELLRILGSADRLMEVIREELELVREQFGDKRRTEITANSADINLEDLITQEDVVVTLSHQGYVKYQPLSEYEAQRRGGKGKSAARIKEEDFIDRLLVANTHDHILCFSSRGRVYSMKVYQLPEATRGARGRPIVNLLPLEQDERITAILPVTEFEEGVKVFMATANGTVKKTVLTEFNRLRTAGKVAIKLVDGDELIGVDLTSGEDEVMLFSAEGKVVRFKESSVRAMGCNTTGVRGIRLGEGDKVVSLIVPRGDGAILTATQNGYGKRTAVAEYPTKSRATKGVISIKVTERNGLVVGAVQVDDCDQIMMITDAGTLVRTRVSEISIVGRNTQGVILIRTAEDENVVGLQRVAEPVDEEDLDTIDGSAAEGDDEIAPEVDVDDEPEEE

Compound | IC50
C[C@H]1CN2c3c(cc(C#Cc4ncccn4)c(F)c3F)CC3(C(=O)NC(=O)NC3=O)[C@@H]2[C@@H](C)O1 (relative stereo) [Example 19, (2S,4R,4aR)-rel-9,10-Difluoro-2,4-dimethyl-8-(pyrimidin-2-ylethynyl)-1,2,4,4a-tetrahydro-2′H,6H-spiro[1,4-oxazino[4,3-a]quinoline-5,5′-pyrimidine]-2′,4′,6′(1′H,3′H)-trione] | 520 nM
C[C@H]1CN2c3c(cc(C#Cc4cnccn4)c(F)c3F)CC3(C(=O)NC(=O)NC3=O)[C@@H]2[C@@H](C)O1 (relative stereo) [Example 20, (2S,4R,4aR)-rel-9,10-Difluoro-2,4-dimethyl-8-(pyrazin-2-ylethynyl)-1,2,4,4a-tetrahydro-2′H,6H-spiro[1,4-oxazino[4,3-a]quinoline-5,5′-pyrimidine]-2′,4′,6′(1′H,3′H)-trione] | 490 nM
C[C@@H]1CN2c3c(cc(/C=N/N4CCCC4)c(F)c3F)CC3(C(=O)NC(=O)NC3=O)[C@H]2[C@H](C)O1 (relative stereo) [Example 21, (2R,4S,4 aS)-rel-9,10-Difluoro-2,4-dimethyl-8-[(E)-(pyrrolidin-1-ylimino)methyl]-1,2,4,4a-tetrahydro-2′H,6H-spiro[1,4-oxazino[4,3-a]quinoline-5,5′-pyrimidine]-2′,4′,6′(1′H,3′H)-trione] | 2250 nM
CC(=O)N/N=C/c1cc2c(c(F)c1F)N1C[C@@H](C)O[C@@H](C)[C@@H]1C1(C2)C(=O)NC(=O)NC1=O (relative stereo) [Example 23, N′-{(E)-[(2R,4S,4aS)-rel-9,10-Difluoro-2,4-dimethyl-2′,4′,6′-trioxo-1,1′,2,3′,4,4′,4a,6′-octahydro-2′H,6H-spiro[1,4-oxazino[4,3-a]quinoline-5,5′-pyrimidin]-8-yl]methylidene}acetohydrazide] | 1030 nM
C[C@@H]1CN2c3cc(F)c(C#Cc4nncs4)cc3CC3(C(=O)NC(=O)NC3=O)[C@H]2[C@H](C)O1 (relative stereo) [Example 24, (2R,4S,4aS)-rel-9-Fluoro-2,4-dimethyl-8-(1,3,4-thiadiazol-2-ylethynyl)-1,2,4,4a-tetrahydro-2′H,6H-spiro[1,4-oxazino[4,3-a]quinoline-5,5′-pyrimidine]-2′,4′,6′(1′H,3′H)-trione] | 350 nM
Cc1nnc(C#Cc2cc3c(cc2F)N2C[C@@H](C)O[C@@H](C)[C@@H]2C2(C3)C(=O)NC(=O)NC2=O)s1 (relative stereo) [Example 25, (2R,4S,4aS)-rel-9-Fluoro-2,4-dimethyl-8-[(5-methyl-1,3,4-thiadiazol-2-yl)ethynyl]-1,2,4,4a-tetrahydro-2′H,6H-spiro[1,4-oxazino[4,3-a]quinoline-5,5′-pyrimidine]-2′,4′,6′(1′H,3′H)-trione] | 870 nM
C[C@@H]1CN2c3cc(F)c(C#Cc4nccs4)cc3CC3(C(=O)NC(=O)NC3=O)[C@H]2[C@H](C)O1 (relative stereo) [Example 26, (2R,4S,4aS)-rel-9-Fluoro-2,4-dimethyl-8-(1,3-thiazol-2-ylethynyl)-1,2,4,4a-tetrahydro-2′H,6H-spiro[1,4-oxazino[4,3-a]quinoline-5,5′-pyrimidine]-2′,4′,6′(1′H,3′H)-trione] | 1080 nM
C[C@@H]1CN2c3cc(F)c(C#Cc4cncs4)cc3CC3(C(=O)NC(=O)NC3=O)[C@H]2[C@H](C)O1 (relative stereo) [Example 27, (2R,4S,4 aS)-rel-9-Fluoro-2,4-dimethyl-8-(1,3-thiazol-5-ylethynyl)-1,2,4,4a-tetrahydro-2′H,6H-spiro[1,4-oxazino[4,3-a]quinoline-5,5′-pyrimidine]-2′,4′,6′(1′H,3′H)-trione] | 830 nM
C[C@@H]1CN2c3cc(F)c(C#Cc4cccs4)cc3CC3(C(=O)NC(=O)NC3=O)[C@H]2[C@H](C)O1 (relative stereo) [Example 28, (2R,4S,4aS)-rel-9-Fluoro-2,4-dimethyl-8-(thiophen-2-ylethynyl)-1,2,4,4a-tetrahydro-2′H,6H-spiro[1,4-oxazino[4,3-a]quinoline-5,5′-pyrimidine]-2′,4′,6′(1′H,3′H)-trione] | 1110 nM
C[C@@H]1CN2c3cc(F)c(C#Cc4cnccn4)cc3CC3(C(=O)NC(=O)NC3=O)[C@H]2[C@H](C)O1 (relative stereo) [Example 31, (2R,4S,4aS)-rel-9-Fluoro-2,4-dimethyl-8-(pyrazin-2-ylethynyl)-1,2,4,4a-tetrahydro-2′H,6H-spiro[1,4-oxazino[4,3-a]quinoline-5,5′-pyrimidine]-2′,4′,6′(1′H,3′H)-trione] | 980 nM
C[C@@H]1CN2c3cc(F)c(C#Cc4cccnc4)cc3CC3(C(=O)NC(=O)NC3=O)[C@H]2[C@H](C)O1 (relative stereo) [Example 32, (2R,4S,4aS)-rel-9-Fluoro-2,4-dimethyl-8-(pyridin-3-ylethynyl)-1,2,4,4a-tetrahydro-2′H,6H-spiro[1,4-oxazino[4,3-a]quinoline-5,5′-pyrimidine]-2′,4′,6′(1′H,3′H)-trione] | 2240 nM
C[C@@H]1CN2c3cc(F)c(C#Cc4ncccn4)cc3CC3(C(=O)NC(=O)NC3=O)[C@H]2[C@H](C)O1 (relative stereo) [Example 33, (2R,4S,4aS)-rel-9-Fluoro-2,4-dimethyl-8-(pyrimidin-2-ylethynyl)-1,2,4,4a-tetrahydro-2′H,6H-spiro[1,4-oxazino[4,3-a]quinoline-5,5′-pyrimidine]-2′,4′,6′(1′H,3′H)-trione] | 1180 nM
C[C@@H]1CN2c3cc(F)c(C#Cc4nc5ccccc5s4)cc3CC3(C(=O)NC(=O)NC3=O)[C@H]2[C@H](C)O1 (relative stereo) [Example 34, (2R,4S,4aS)-rel-8-(1,3-Benzothiazol-2-ylethynyl)-9-fluoro-2,4-dimethyl-1,2,4,4a-tetrahydro-2′H,6H-spiro[1,4-oxazino[4,3-a]quinoline-5,5′-pyrimidine]-2′,4′,6′(1′H,3′H)-trione] | 2950 nM
C[C@@H]1CN2c3cc(F)c(C#Cc4nc5ccccc5o4)cc3CC3(C(=O)NC(=O)NC3=O)[C@H]2[C@H](C)O1 (relative stereo) [Example 35, (2R,4S,4aS)-rel-8-(1,3-Benzoxazol-2-ylethynyl)-9-fluoro-2,4-dimethyl-1,2,4,4a-tetrahydro-2′H,6H-spiro[1,4-oxazino[4,3-a]quinoline-5,5′-pyrimidine]-2′,4′,6′(1′H,3′H)-trione] | 1480 nM
C[C@@H]1CN2c3c(F)cc(C#Cc4nncs4)cc3CC3(C(=O)NC(=O)NC3=O)[C@H]2[C@H](C)O1 (relative stereo) [Example 36, (2R,4S,4aS)-rel-10-Fluoro-2,4-dimethyl-8-(1,3,4-thiadiazol-2-ylethynyl)-1,2,4,4a-tetrahydro-2′H,6H-spiro[1,4-oxazino[4,3-a]quinoline-5,5′-pyrimidine]-2′,4′,6′(1′H,3′H)-trione] | 710 nM
C[C@@H]1CN2c3c(F)cc(C#Cc4nccs4)cc3CC3(C(=O)NC(=O)NC3=O)[C@H]2[C@H](C)O1 (relative stereo) [Example 38, (2R,4S,4aS)-rel-10-Fluoro-2,4-dimethyl-8-(1,3-thiazol-2-ylethynyl)-1,2,4,4a-tetrahydro-2′H,6H-spiro[1,4-oxazino[4,3-a]quinoline-5,5′-pyrimidine]-2′,4′,6′(1′H,3′H)-trione] | 760 nM
C[C@@H]1CN2c3c(F)cc(C#Cc4cccs4)cc3CC3(C(=O)NC(=O)NC3=O)[C@H]2[C@H](C)O1 (relative stereo) [Example 40, (2R,4S,4aS)-rel-10-Fluoro-2,4-dimethyl-8-(thiophen-2-ylethynyl)-1,2,4,4a-tetrahydro-2′H,6H-spiro[1,4-oxazino[4,3-a]quinoline-5,5′-pyrimidine]-2′,4′,6′(1′H,3′H)-trione] | 1140 nM

Same assay, conditions: 5 nM enzyme, 0.3 mM ATP, relaxed plasmid, fluorescence anisotropy readout; read-out: E. coli DNA gyrase supercoiling IC50

Compound | IC50
C[C@@H]1CN2c3cc(F)c(C#Cc4nccn4C)cc3C(=O)C3(CNC(=O)NC3=O)[C@H]2[C@H](C)O1 (relative stereo) [Example 30, (2R,4S,4aS)-rel-9-Fluoro-2,4-dimethyl-8-[(1-methyl-1H-imidazol-2-yl)ethynyl]-1,2,4,4a-tetrahydro-2′H,6H-spiro[1,4-oxazino[4,3-a]quinoline-5,5′-pyrimidine]-2′,4′,6(1′H,3′H)-trione] | 1150 nM
Cc1nnc(C#Cc2cc(F)c3c(c2)C(=O)C2(CNC(=O)NC2=O)[C@H]2[C@H](C)O[C@H](C)CN32)s1 (relative stereo) [Example 37, (2R,4S,4aS)-rel-10-Fluoro-2,4-dimethyl-8-[(5-methyl-1,3,4-thiadiazol-2-yl)ethynyl]-1,2,4,4a-tetrahydro-2′H,6H-spiro[1,4-oxazino[4,3-a]quinoline-5,5′-pyrimidine]-2′,4′,6(1′H,3′H)-trione] | 940 nM
C[C@@H]1CN2c3c(F)cc(C#Cc4cncs4)cc3CC3(C(=O)NC(=O)NC3=O)[C@H]2[C@H](C)O1 (relative stereo) [Example 39, (2R,4S,4aS)-rel-10-Fluoro-2,4-dimethyl-8-(1,3-thiazol-5-ylethynyl)-1,2,4,4a-tetrahydro-2′H,6′-spiro[1,4-oxazino[4,3-a]quinoline-5,5′-pyrimidine]-2′,4′,6′(1′H,3′H)-trione] | 870 nM
